Values after ≈ are worked out from the molar mass of the structure shown. Numbered stars: 1 amine (or outer) side, 2 acyl side, 3 side chain; on linkers, the order of the positions; unused ones are H or OH. Ends that are not written are not given here. Peptide text beside a SMILES is read from it. Suc = O=C(CCC(=O)[*:2])[*:1]
Columns and labels:
[1] = tested on: abdominal skin of C.R rats; assay: Rat skin test: intradermal injection of peptide, then intradermal compound 48/80 or vehicle, wheal area; format: in vivo; details: for Mean wheal size, compound 48/80-induced cutaneous reaction: Fenistil Gel 100 mg t.a., Cromoglycate 20 mg/ml i.d., Peptide 2 10 mg/ml i.d.; for Mean Wheal Area ± STD, Vehicle: vehicle instead of compound 48/80
Experimental: The hair of the abdominal area of C.R rats was carefully removed with an electric clipper and a depilatory cream. In each animal the abdominal area was divided to six equal zones that were marked by pen. Each zone was either subjected to peptide treatment or served as a control. In the first set of experiments, the peptide was topically applied as follows: 36 μl of peptide solution at the indicated concentration (dissolved in 72% DMSO in saline) was applied on desired abdominal area. In the second set of experiments, the peptide was injected intradermally as follows: 20 μl of peptide solution at different concentrations (dissolved in 10% DMSO in saline) was injected intradermally to an indicated abdominal area using a 27-gauge sterile needle.
Skin tests were performed 0.5, 1 or 2 hours following application of the peptide. Skin tests were performed by injecting intradermally 20 μl of the allergen (0.1 mg/ml compound 48/80 dissolved in saline) or saline alone, into the center of each marked area on the abdominal skin using a 27-gauge sterile needle. The allergic response was monitored by outlining with a marker the wheals which developed in response to allergen or saline treatment.
To quantitate the skin test results, the marker signs were transferred onto paper with scotch tape. The areas of the wheals were outlined and calculated by a computerized planimeter (Hewlett-Packard), as previously described (Sussman et al., 1982).
Tables 10-16 presents the mean areas of the wheals, which developed in response to intradermal injection of each of the tested peptides, followed by either compound 48/80 or DDW injection applied after 0.5 or 1 hour. Two doses were tested for each peptide-20 and 200 μg (injection of 20 μl from a stock solution of 1 mg/ml or 10 mg/m respectively).
Skin tests on rats using compound 48/80 as the allergen assessed the ability of the peptides of the present invention to block allergic cutaneous reactions. The abdominal skin of the rats was subjected to peptide (indicated concentrations are listed in Tables 17A-17B below) or vehicle treatment (intradermal injection); the allergic response was induced by intradermal injection of compound 48/80 at various times; and the allergic response was quantified by calculating the area of the resultant allergic wheals.

mice = assay: IgE-independent mouse conjunctivitis induced by compound 48/80, clinical score; format: in vivo; parameters: scale not given here; details: for Average Score, Chemosis: drug 24, 21, 18 hrs and 30 min before compound 48/80, Cromoglycate 2%, Dexamethazone 0.1%, Peptide 2 2%, no treatment 2.0; for Average Score, Erythema / Average Score, Tearing / Average Score, Lid edema / Average Score, Total score: drug before compound 48/80; for Average Score, Erythema: no treatment 0.8; for Average Score, Tearing: no treatment 2.3; for Average Score, Lid edema: no treatment 2.5; for Average Score, Total score: no treatment 7.6
Experimental: A murine model was chosen as an in vivo model of IgE-independent human conjunctivitis, induced by a basic secretagogue.
Six groups of mice were topically treated as described in Table 19. The first application was installed 4 times (24 hours, 21 hours, 18 hours and 30 minutes) prior to the second application.
Clinical evaluation of allergic conjunctivitis was conducted in a blind fashion by determining the extent and intensity of lid edema, chemosis, erythema and tearing.

[2] = tested on: purified rat peritoneal mast cells; assay: Histamine secretion from intact mast cells incubated with peptide alone (secretagogue side effect); details: for Secretagogue (histamine secretion following incubation of mast cell with different concentrations of each peptide): Table 9, no allergen; for histamine secretion from mast cells on incubation with increasing concentrations of peptide alone: no additional allergen
Experimental: Mast cells from the peritoneal cavity of C.R rats were isolated in Tyrode buffer (137 mM NaCl, 2.7 mM KC1, 1 mM MgCl2, 0.4 mM NaH2PO4, 20 mM Hepes, 1.0 mM CaCl2, 5.6 mM glucose, 1 mg/ml BSA, pH 7.2) and purified over a Ficoll gradient. A suspension of washed peritoneal cells was placed over a cushion of 30% Ficoll 400 (Pharmacia Biotech.) in buffered Saline containing 0.1% BSA; and centrifuged at 150O×g for 15 min. The purity of mast cells recovered from the bottom of the tube was >90%, as assessed by toluidine blue staining.
Purified mast cells (duplicated of 10^5 cells/0.5 ml) were incubated in Tyrode buffer with buffer or with desired concentrations of the indicated peptide for 2 h. at. 37° C. Histamine secretion was subsequently stimulated by the indicated concentration of compound 48/80 (Sigma) dissolved in Tyrode buffer. Incubation with compound 48/80 was carried out for 20 mm.in at 37° C. The reaction was terminated by placing the tubes on ice. The cells were sedimented by centrifugation at 150×g for 5 mm.in and the supernatants were collected. The amount of histamine release was determined as previously described (Aridor et al., 1990). Briefly, cell pellets were lysed using 0.1N NaOH and the volume of each sample was adjusted to 0.5 ml by H2O. Histamine content was assayed using the o-phtalaldehyde (OPT) fluorimetric method (Shore et al., 1959). Aliquots of 0.4 ml from the supernatants and cell lysates were incubated with 1.6 ml H20, 0.4 ml 1N NaOH and 0.1 ml of 10 mg/l ml OPT in methanol, for 4 min at room temperature. The reaction was terminated by the addition of 0.2 ml 3N HCl. Samples were centrifuged at 150×g for 5 min. and 0.2 ml samples were transferred to a 96 well plate. The histamine spectrofluorometric assay was run in microplates using a microplates reader (FL-600, Biotek instruments Winooski, Vt., USA). Samples were excited by light at 340 nm and read at 440 nm. Histamine release was calculated as the percentage of total histamine content (supernatant/pellet+supernatant) in each sample. Each data point represents the average of duplicate measurements. The spontaneously released histamine was subtracted.

[3] = tested on: purified rat peritoneal mast cells; format: cell-based
Experimental: 37° C. […] Each data point represents the average of duplicate measurements. The spontaneously released histamine was subtracted.
First, the effect of compound 48/80 on exocytosis from intact mast cells was determined. […] Histamine release was determined and is presented as the net secretion that is % of the total cellular histamine following subtraction of the spontaneously released histamine. Half-maximal release was obtained at 0.1 μg/ml while maximal release was obtained at 1-10 μg/ml. Accordingly, in order to analyze the potential of each peptide to block histamine secretion, histamine secretion was induced with 5 μg/ml compound 48/80, a concentration that induces a maximal histamine release, while the cells were incubated in the presence of increasing concentrations of each peptide.
In order to investigate the ability of these peptides to block allergen-induced exocytosis, the peptides were examined for their ability to block compound 48/80 induced histamine secretion from intact mast cells in vitro. Mast cells were incubated with different concentrations of each peptide, followed by induction of histamine secretion by compound 48/80.

[4] = intradermal peptide 1 mg/ml, 0.5 hour before
[5] = intradermal peptide 1 mg/ml, 1 hour before
[6] = intradermal peptide 10 mg/ml, 0.5 hour before
[7] = intradermal peptide 10 mg/ml, 1 hour before

Molecule	Average Score, Chemosis (mice)	Average Score, Erythema (mice)	Average Score, Tearing (mice)	Average Score, Lid edema (mice)	Average Score, Total score (mice)	Mean Wheal Area ± STD, Vehicle [1, 4]	Mean Wheal Area ± STD, Vehicle [1, 5]	Mean Wheal Area ± STD, Vehicle [1, 6]	Mean Wheal Area ± STD, Vehicle [1, 7]	Secretagogue (histamine secretion following incubation of mast cell with different concentrations of each peptide) ([2]; peptide alone)	histamine secretion from mast cells on incubation with increasing concentrations of peptide alone [2]	IC50, compound 48/80 induced histamine secretion [3]	further results
O=C(O)c1cc(=O)c2c(OCC(O)COc3cccc4oc(C(=O)O)cc(=O)c34)cccc2o1 [Cromoglycate]	0.5	0.5	1.9	1.1	4.0								Mean wheal size, compound 48/80-induced cutaneous reaction ([1]; 0.5 hour incubation, Ceterizine 0.01 mg/ml i.d., no treatment 115.5 ± 30.4): 76.2 ± 17.5 mm^2; Mean wheal size, compound 48/80-induced cutaneous reaction ([1]; 1 hour incubation, no treatment 123.3 ± 33.9): 91.5 ± 12.6 mm^2
C[C@@H]1C[C@H]2[C@@H]3CCC4=CC(=O)C=C[C@]4(C)[C@@]3(F)[C@@H](O)C[C@]2(C)[C@@]1(O)C(=O)CO [Dexamethazone]	0	0.6	1.0	0	1.6								
CC(C)C[C@H](NC(=O)CNC(=O)[C@@H](NC(=O)[C@H](CCC(=O)O)NC(=O)[C@H](CCCCN)NC(=O)[C@H](CC(C)C)NC(=O)[C@H](CC(N)=O)NC(=O)[C@H](CC(N)=O)NC(=O)[C@H](CCCCN)NC(=O)[C@@H]1CCCN1C(=O)[C@H](C)NC(=O)[C@H](CC(C)C)NC(=O)[C@H](CC(C)C)NC(=O)[C@H](C)NC(=O)[C@H](CC(C)C)NC(=O)[C@H](CC(C)C)NC(=O)[C@@H](NC(=O)[C@H](C)NC(=O)[C@@H]1CCCN1C(=O)[C@H](CC(C)C)NC(=O)[C@H](CC(C)C)NC(=O)[C@H](C)NC(=O)[C@@H](NC(=O)[C@H](C)NC(=O)[C@H](C)NC(=O)CCC(=O)O)C(C)C)C(C)C)C(C)C)C(=O)N[C@@H](Cc1ccc(O)cc1)C(=O)O [WALL016] (Suc-AAVALLPAVLLALLAPKNNLKEVGLY-OH; C-terminus assumed)						66.4 ± 12.5 (n = 5) mm^2	62.8 ± 14.6 (n = 6) mm^2	72.6 ± 16.2 (n = 5) mm^2	69.3 ± 17.0 (n = 6) mm^2	−	did not result in histamine secretion	295 µg/mL (≈ 106 µM)	block of compound 48/80 induced allergic reaction in vivo, rat skin ([1]; intradermal peptide): effectively block the allergic response in vivo; Mean Wheal Area ± STD, Compound 48/80 ([1]; intradermal peptide 1 mg/ml, 0.5 hour before allergic induction): 104.2 ± 21.6 (n = 5) mm^2; Mean Wheal Area ± STD, Compound 48/80 ([1]; intradermal peptide 1 mg/ml, 1 hour before allergic induction): 96.3 ± 15.6 (n = 6) mm^2; Mean Wheal Area ± STD, Compound 48/80 ([1]; intradermal peptide 10 mg/ml, 0.5 hour before allergic induction): 81.2 ± 7.9 (n = 5) mm^2; Mean Wheal Area ± STD, Compound 48/80 ([1]; intradermal peptide 10 mg/ml, 1 hour before allergic induction): 82.1 ± 27.2 (n = 6) mm^2; reduction of compound 48/80 induced allergic reaction ([1]; intradermal peptide 0.5 or 1 hour before allergic induction): significant inhibition; basal level of histamine secretion compared to control cells ([2]; peptide alone, increasing concentrations): inhibition of the basal histamine secretion; maximal inhibition of compound 48/80 induced histamine secretion ([3]; 600 μg/ml peptide, compound 48/80 concentration not given): 79.6%; Inhibitor (extent of inhibition of histamine secretion from mast cells) ([3]; Table 9, incubation with different concentrations of each peptide, then induction of the allergic reaction): ++ (++ Moderate inhibitor (50%-70% inhibition))
AAVALLPAVLLALLAPKNNLKEVGLY [WALL007]						76.5 ± 14.1 (n = 12) mm^2	62.4 ± 11.1 (n = 15) mm^2	74.5 ± 26.4 (n = 12) mm^2	65.9 ± 10.0 (n = 11) mm^2	−	did not result in histamine secretion	230 µg/mL	
